Measured values as given in US10369163B2, “Anti-fatigue composition” (AJINOMOTO CO., INC., priority 2013, dated 2019).

Experiments:
[1] = Safety of His ingestion: general properties, hematology, blood biochemistry; format: in vivo, human; settings: ingestion of His (1.65 g, single or 14 days) in test subjects
[2] = tested on: males feeling decrease in the quality of sleep and fatigue; test: Crossover test of histidine ingestion for 14 days (POMS, VAS questionnaires, CogHealth); format: in vivo, human
Source text: Twenty males of 45 years old to less than 65 years old, who received total evaluation of not less than 17 points in the “self-diagnosis fatigue questionnaire” (Fatigue Science Laboratory Inc.), felt decrease in the quality of sleep (generally PSQI≥6), and obtained fatigue factor T scores of not less than 60 points in POMS, performed in advance, were selected, and randomly divided into 2 groups (10 per group). A crossover test, including ingesting histidine and control food (equal volume of cellulose) each for 14 days, was performed in each group. As shown in the experiment protocol of FIG. 9A, the test subjects ingested capsules containing 1.65 g of L-histidine as a daily ingestion amount (5 capsules (hard capsule #2 WHITE OP B/C) containing 0.33 g of L-histidine alone), or control sample capsules (5 capsules containing equal volume of cellulose) for 14 days. After the completion of 14 day ingestion, a 14 day resting period was taken. After the resting period, they ingested the capsules not ingested before the resting period. On the initial day and the day after completion of the capsule ingestion period, the test subjects answered POMS and the VAS questionnaires (fatigue, depression, vague sense, drowsiness, clear thinking, motivation, attentiveness, concentration) relating to fatigue, and cognitive function measurement task CogHealth (under higher difficulty conditions by simultaneously including mental arithmetic task as well) to measure intellectual performance which is one of the fatigue indices. Furthermore, they answered VAS questionnaires after completion of CogHealth.

[3] = tested on: CD2F1 mice; test: Y-maze test, short-working memory (alternation behavior) after 48 hr burden of insufficient sleep; format: in vivo, mouse; settings: His:VB6=360:1; His 900, VB6 2.5 mg/kg/day one week plus oral dose; FIG. 7B
Procedure: Using CD2F1 mice (9-10-week-old) in the group constitution shown in Table 4, the test was performed as shown in the experiment protocol (FIG. 4A). The His group and His+VB6 group were allowed to drink each solution freely for one week so that the ingestion amount of His would be 900 mg/kg/day, and the ingestion amount of the VB6 group and the His+VB6 group would be […]. As the feed, a feed having the composition of Table 5 was used. After ingestion of His or VB6, or both for one week, insufficient sleep was burdened for 48 hr by filling water in the breeding cage at the depth of 0.5 cm. The burden was released at 6 hr from the start of the light phase, and the mice were placed back in the home cage and allowed to rest for 6 hr. […] A Y-maze test was performed at 3 hr from the start of the dark phase, and short-working memory was measured. […] A Y-maze test was performed at 3 hr from the start of the dark phase, and short-working memory was measured. […] A Y-maze test was performed at 3 hr from the start of the dark phase, and short-working memory was measured. […] A Y-maze test was performed at 3 hr from the start of the dark phase, and short-working memory was measured. […]

[4] = tested on: males feeling decrease in the quality of sleep and fatigue; test: Single histidine ingestion (VAS questionnaires, CogHealth); format: in vivo, human
Source text: Twenty males of 45 years old to less than 65 years old, who received total evaluation of not less than 17 points in the “self-diagnosis fatigue questionnaire” (Fatigue Science Laboratory Inc.), felt decrease in the quality of sleep (generally PSQI≥6), and obtained fatigue factor T scores of not less than 60 points in POMS performed in advance, were selected, and randomly divided into 2 groups (10 per group). The effect of single ingestion of histidine and control food (equal volume of cellulose) was compared in each group. As shown in the experiment protocol of FIG. 10A, the test subjects took the same meals for 3 days before the experiment, fasted for 10 to for 14 hr, and ingested capsules containing 1.65 g of L-histidine as a single ingestion amount (5 capsules (hard capsule #2 WHITE OP B/C) containing 0.33 g of L-histidine alone), or control sample capsules (5 capsules containing equal volume of cellulose). Before and 1 hr after ingestion of capsules, the test subjects answered the VAS questionnaires (fatigue, depression, vague sense, drowsiness, clear thinking, motivation, attentiveness, concentration) relating to fatigue, and cognitive function measurement task CogHealth (under higher difficulty conditions by simultaneously including mental arithmetic task as well) to measure intellectual performance which is one of the fatigue indices. Furthermore, they answered VAS questionnaires after completion of CogHealth.

[5] = 14 days, after completion of CogHealth, p<0.05, FIG. 9E
[6] = 14 days, before CogHealth, vs control food, p<0.05, FIG. 9C
[7] = single ingestion, after completion of CogHealth
[8] = single ingestion, before CogHealth, p<0.05, FIG. 10B

N[C@@H](Cc1c[nH]cn1)C(=O)O [His, histidine]
variation in general properties, hematology, and blood biochemistry [1]: did not show problematic variation | fatigue factor scores of POMS ([2]; 1.65 g L-histidine daily for 14 days vs control food, paired t-test p<0.05, FIG. 9B): significantly decreased | reaction time of cognitive function measurement task ([2]; 14 days, CogHealth, vs control food, FIG. 9D): shortened | reaction time of delayed recall task ([2]; 14 days, CogHealth, vs control food, p<0.05, FIG. 9D): significantly decreased | VAS sense of attentiveness [2, 5]: significantly increased | VAS sense of depression [2, 5]: significantly decreased | VAS sense of motivation [2, 5]: significantly increased | VAS sense of attentiveness [2, 6]: significantly increased | VAS sense of clear thinking [2, 6]: significantly increased | VAS sense of motivation [2, 6]: significantly increased | alternation behavior as compared to the VB6 group [3]: significant increase | work time in 5 kinds of brain function measurement indices ([4]; single 1.65 g L-histidine, 1 hr after ingestion, vs control food): shortened | VAS sense of concentration [4, 7]: tended to increase | VAS sense of depression [4, 7]: tended to decrease | VAS vague sense ([4]; single ingestion, after completion of CogHealth, p<0.05): significantly decreased | VAS sense of concentration ([4]; single ingestion, before CogHealth, FIG. 10B): tended to increase | VAS sense of attentiveness [4, 8]: significantly increased | VAS sense of clear thinking [4, 8]: significantly increased
